Bridge positions count the residues as written; N and C are the ends. Square brackets hold non-standard residues; d marks the D form. Peptide text beside a SMILES is read from it. * marks the point of attachment. Palmitoyl = CCCCCCCCCCCCCCCC(=O)*; Dab = NCC[C@H](N)C(=O)O; Dap = NC[C@H](N)C(=O)O; AEEA = NCCOCCOCC(=O)O
Legend:
C57BL/6J mice [1] = assay: Survival in LPS induced sepsis model (FIG. 2A); type: in vivo; details: LPS 15 mg/kg IP; 0.3 mg/kg (0.1 μmol/kg) SC once, survival to 56 hours
Description: (§1) FIGS. 2A-2B: Single and repeat administration of cationic alkyl modified C-type Natriuretic Peptides increases probability of survival in LPS induced Sepsis and ALI animal models. FIG. 2A) Sepsis induction: Male C57BL/6J mice (n=10 per group; 3 groups) were injected IP with LPS (15 mg/kg) and treated with various test articles, including cationic alkyl modified CNPs (SEQ ID NO: 31 and 29; 0.3 mg/kg (0.1 μmol/kg) SC). The control group received LPS treatment without any test article. The test articles were administered immediately after LPS administration (marked with vertical dotted lines). Survival was monitored every 2 hours from 8-56 hours, after which the surviving mice were euthanized under isoflurane anesthesia. […] Survival was monitored every 8 hours for 72 hours, after which the surviving mice were euthanized under isoflurane anesthesia. […]
(§2) Animal care and treatment: Male C57BL/6J mice (6 weeks-old) were purchased from Kyudo (Saga, Japan) and maintained under a 12-hour light/12-hour dark cycle with free access to water and standard mouse diet (MF diet, Oriental Yeast Co., Ltd. Tokyo, Japan). […] Survival was monitored every 2 hours from 8-56 hours, after which the mice were euthanized under isoflurane anesthesia. […] Survival was monitored every 8 hours for 72 hours, after which the mice were euthanized under isoflurane anesthesia. […]

C57BL/6J mice [2] = assay: Survival in LPS induced ALI model (FIG. 2B); type: in vivo; details: LPS 20 mg/kg IT; 0.3 mg/kg (0.1 μmol/kg) IT every 24 hours, 3 doses, survival to 72 hours
Description: as §1, §2

[3] = system: E0771 breast cancer cells; assay: Orthotopic mouse model of breast cancer using E0771 cells (FIG. 6); type: in vivo, mice; details: 0.3 mg/kg (0.1 μmol/kg) SC once daily, 5 days on, 2 days off, 3 cycles
Description: Error bars represent standard error of the mean. FIG. 6A) Tumor growth kinetics of 6-week-old female C57BL/6J mice (n=10 per group) that were inoculated with E0771 breast cancer cells (250,000 cells/mouse) in the mammary gland. Starting from Day 4 post-inoculation, cationic alkyl modified CNP derivatives (SEQ ID NO: 29, 30, and 31) were administered subcutaneously at a bolus dose of 0.3 mg/kg (0.1 μmol/kg) once daily for 5 days (5 days on, 2 days off) for 3 cycles; dose days indicated by gridlines. The control group, which received only buffer, was dosed in the same manner to establish the baseline tumor growth kinetics. […] Therefore, it can be concluded that the attachment of CNP is important for the observed anti-tumor activity. Statistical analysis was based on Dunnett's test performed by using GraphPad (n=10, 10, 10, and 10; Control, SEQ ID NO: 29, SEQ ID NO: 30, and SEQ ID NO: 31) **** P<0.0001 vs Control group.
Therefore, it can be concluded that the attachment of CNP is essential for anti-tumor activity. […] Animal care and treatment: Female C57BL/6J mice (6 weeks-old) were purchased from Kyudo (Saga, Japan) and maintained under a 12-hour light/12-hour dark cycle with free access to water and standard mouse diet (MF diet, Oriental Yeast Co., Ltd. Tokyo, Japan or PicoLab Rodent Diet 20, LabDiet Corp., St. Louis, Missouri). Implantation and drug administration: Mice were implanted with E0771 breast cancer cells (250,000 cells/mouse; Cosmo Bio Tokyo, Japan) in their left mammary gland and were randomized into groups of n=10. Starting from Day 4 post-inoculation, cationic alkyl modified CNP derivatives (SEQ ID NOs: 29, 30, and 31) were administered subcutaneously at a bolus dose of 0.3 mg/kg (0.1 μmol/kg; with a dose volume of 10 mL/kg) in sterile water for injection (Otsuka Pharmaceutical, Tokushima, Japan) once daily for 5 days (5 days on, 2 days off) for 3 cycles. The control group, which received only buffer, was dosed in the same manner to establish the baseline tumor growth kinetics. Tumor sizes were measured using calipers. Statistical analysis was based on Dunnett's test performed by using GraphPad (n=10, 10, 10, and 10; Control, SEQ ID NO: 29, SEQ ID NO: 30, and SEQ ID NO: 31) **** P<0.0001 vs Control group.

Sprague Dawley rats = assay: Dose-range finding of cationic alkyl modified CNP, subcutaneous bolus in rats (Table 2)
Description: Animal care and treatment: Male Sprague Dawley rats aged 8 to 10 weeks (Charles River, Hollister, CA) were housed in groups of two (n=3/group) in disposable polypropylene cages with rodent cob bedding at the PharmaIN animal facility. Animals had ad libitum access to food (LabDiet Pico Rodent #5053; Animal Specialties, Woodburn, OR) and water. Temperature (68-74° F.) and humidity (30-60%) were maintained within a controlled range, and a 12-hour light/dark cycle was used. […] Animals were monitored closely during the first 4 hours following injection, then hourly throughout the rest of the day for any signs of swelling or discoloration (dilatory side effect), lethargy (side effect), ataxia (ataxia is used as a marker of toxicity). Rats were allowed a 1-week wash-out period between bolus doses. Following final observations, animals were humanely euthanized through CO2 asphyxiation.

Row | SMILES | Survival (C57BL/6J mice [1]) | Survival (C57BL/6J mice [2]) | Tumor volume compared to the Control group [3] | Ataxia** in n = 3 (Sprague Dawley rats; up to 10 mg/kg) | Lethargy* in n = 3 (Sprague Dawley rats; up to 10 mg/kg) | Ataxia** in n = 3 (Sprague Dawley rats; value in parentheses) | Lethargy* in n = 3 (Sprague Dawley rats; value in parentheses)
1 | CCCCCCCCCCCCCCCC(=O)NCCOCCOCC(=O)NCCOCCOCC(=O)NCCOCCOCC(=O)N[C@@H](CN)C(=O)N[C@@H](CN)C(=O)NCC(=O)N[C@@H](CC(C)C)C(=O)N[C@@H](CO)C(=O)N[C@@H](CCCCN)C(=O)NCC(=O)N[C@H]1CSSC[C@@H](C(=O)O)NC(=O)CNC(=O)[C@H](CC(C)C)NC(=O)CNC(=O)[C@H](CO)NC(=O)[C@H](CCC(N)=O)NC(=O)[C@H](CO)NC(=O)CNC(=O)[C@H]([C@@H](C)CC)NC(=O)[C@H](CCCNC(=N)N)NC(=O)[C@H](CC(=O)O)NC(=O)[C@H](CC(C)C)NC(=O)[C@H](CCCCN)NC(=O)[C@H](CC(C)C)NC(=O)CNC(=O)[C@H](Cc2ccccc2)NC1=O [SEQ ID NO: 31] ({Palmitoyl-AEEA-AEEA-AEEA}-[Dap][Dap]GLSKGCFGLKLDRIGSQSGLGC-OH; disulfide 8-24; C-terminus assumed) | effective in improving survival | effective in improving survival | significant decrease in tumor volume | >10 mg/kg | >10 mg/kg | (3.3) μmol/kg | (3.3) μmol/kg
2 | CCCCCCCCCCCCCCCC(=O)NCCOCCOCC(=O)NCCOCCOCC(=O)NCCOCCOCC(=O)N[C@@H](CCN)C(=O)N[C@@H](CCN)C(=O)NCC(=O)N[C@@H](CC(C)C)C(=O)N[C@@H](CO)C(=O)N[C@@H](CCCCN)C(=O)NCC(=O)N[C@H]1CSSC[C@@H](C(=O)O)NC(=O)CNC(=O)[C@H](CC(C)C)NC(=O)CNC(=O)[C@H](CO)NC(=O)[C@H](CCC(N)=O)NC(=O)[C@H](CO)NC(=O)CNC(=O)[C@H]([C@@H](C)CC)NC(=O)[C@H](CCCNC(=N)N)NC(=O)[C@H](CC(=O)O)NC(=O)[C@H](CC(C)C)NC(=O)[C@H](CCCCN)NC(=O)[C@H](CC(C)C)NC(=O)CNC(=O)[C@H](Cc2ccccc2)NC1=O [SEQ ID NO: 29] ({Palmitoyl-AEEA-AEEA-AEEA}-[Dab][Dab]GLSKGCFGLKLDRIGSQSGLGC-OH; disulfide 8-24; C-terminus assumed) | effective in improving survival | effective in improving survival | significant decrease in tumor volume | >10 mg/kg | ≥9.5 mg/kg | (3.3) μmol/kg | (3.1) μmol/kg

From patent publication US20240325544A1, “CATIONIC LIPID FOR COVALENT MODIFICATION OF PEPTIDES” (PharmalN Corporation, priority 2023, published 2024)
